Data reported in ChEMBL document CHEMBL1142884, “Inhibition of horseradish peroxidase catalytic activity by new 3-phenylcoumarin derivatives: synthesis and structure-activity relationships” (Bioorg Med Chem, 2007).

Key:
[1] = Inhibition of horseradish peroxidase catalytic activity by luminol-enhanced chemiluminescence assay; set-up: species or system Armoracia rusticana
[2] = DPPH radical scavenging activity; assay type: functional

SMILES | IC50 [1] [µM] | IC50 [2] [µM]
CC(=O)Oc1ccc(-c2cc3cc(OC(C)=O)c(OC(C)=O)cc3oc2=O)cc1OC(C)=O | 28.2 | 
O=c1oc2ccc(O)cc2cc1-c1ccccc1O | 24.6 | 24.9
O=c1oc2cc(O)c(O)cc2cc1-c1ccc(O)c(O)c1 | 1.2 | 9.8
O=c1oc2ccc(O)cc2cc1-c1ccc(O)c(O)c1 | 2.8 | 26.8
O=c1oc2cc(O)c(O)cc2cc1-c1ccc2c(c1)OCO2 | 3.4 | 13.2
